In brackets after ≈: the same amount, converted by molar mass. Peptide text beside a SMILES is read from it.
Legend:
[1] = system: HEK-293T cells (human host cells); assay: Cytotoxic effect on host cells (bright-field images) in the lentivirus test; format: cell-based; details: lentiviruses treated with 5 μg/μL of synthetic peptides
Method: (A) For fluorescence microscopy, we treated GFP-labeled lentiviruses with the cell-free supernatant for 5 min and 24 h, and then were infected in HEK-293T human host cells. The 1× and 5× correspond to the concentrations treated to the lentiviruses, 79.15 and 395.75 μg total proteins/mL, respectively. The bright-field images (Bright) indicate the HEK-293T cells, and the green signals in the fluorescent images (GFP) represent the GFP-labeled lentiviruses. (B) For scanning electron microscopy, the GFP-labeled lentiviruses were treated without (a) or with the cell-free supernatant (395.75 μg total proteins/mL) (b) for 5 min.
Figure 5 Fluorescence micrographs of HEK-293T cells infected with GFP-labeled lentiviruses treated with synthetic Pln 3 and 5. The lentiviruses were treated without (control) or with the synthetic peptides (1 to 5 μg/μL) Pln 3 (A) and 5 (B) for 5 min or 24 h, and then the HEK-293T human host cells were infected. The bright-field images (Bright) indicate the HEK-293T cells, and the green signals in the fluorescent images (GFP) represent the GFP-labeled lentiviruses.
For the anti-viral test, we co-incubated 2 μL of lentivirus soup (2.8 × 10^6 lentiviruses/μL) with 2 μL of test sample for 5 min and 24 h at 25 °C. After the co-incubation, 2 μL from the total 4 μL of the test sample–lentivirus mixture was infected in HEK-293T cells (1 × 10^4 cells per well).

Salmonella Typhimurium = format: cell-based; details: synthetic peptides against S. Typhimurium; Figure S3
Method: L. plantarum NIBR97 was incubated at 37 °C for 24 h in an MRS liquid medium (10 g/L peptone, 8 g/L meat extract, 4 g/L yeast extract, 20 g/L d(+)-glucose, 2 g/L dipotassium hydrogen phosphate, 5 g/L sodium acetate trihydrate, 2 g/L triammonium citrate, 0.2 g/L magnesium sulfate heptahydrate, and 0.05 g/L manganous sulfate tetrahydrate). The cultural broth was centrifuged for 20 min at 2000× g, and the centrifugal supernatant was collected and then sterilized by a 0.22 μm filtration. The sterilized fluid was either applied directly for the examination of antimicrobial activity or fractionated and stored at −80 °C until use. The assessment of antimicrobial activity on a microtiter plate was performed by some modification of the dilution assay of Wiegand et al.. The MIC50 and MIC90 were expressed as total proteins equivalent (μg) per volume (mL) of the sample, and the effect of proteinase K treatment was examined by a previously described procedure.
Figure 3. Antibacterial activity of synthetic Plantaricins identified from the L. plantarum NIBR97
genome. Pln 1, 2, 3, 4 and 5 were synthesized according to the amino acid sequences in Figure 3, and
further examined for their antibacterial activity against a Salmonella enterica serotype, S.
The Y axis in the graphs represents the relative growth of S. Typhimurium. […]

For CSCC[C@H](NC(=O)CNC(=O)[C@@H](NC(=O)[C@@H]1CCCN1C(=O)[C@H](CCSC)NC(=O)CNC(=O)[C@H](CC(N)=O)NC(=O)[C@H](CC(N)=O)NC(=O)[C@H](Cc1ccc(O)cc1)NC(=O)[C@@H](NC(=O)[C@H](CCC(N)=O)NC(=O)[C@H](CS)NC(=O)[C@H](CCCNC(=N)N)NC(=O)[C@H](CCCNC(=N)N)NC(=O)[C@H](CO)NC(=O)[C@H](CCCCN)NC(=O)[C@@H](N)CCCCN)C(C)C)[C@@H](C)O)C(=O)N[C@@H](Cc1ccc(O)cc1)C(=O)N[C@H](C(=O)N[C@@H](CO)C(=O)N[C@@H](CS)C(=O)O)[C@@H](C)O [Pln 3] (H-KKSRRCQVYNNGMPTGMYTSC-OH), the “cytotoxicity on the human host cells” value [1] was “exhibited a cytotoxicity on the human host cells” and the MIC50 (Salmonella Typhimurium) was 5170 µg/mL (≈ 2130 µM).
Compound CC[C@H](C)[C@H](NC(=O)CNC(=O)[C@@H](NC(=O)[C@H](CO)NC(=O)CNC(=O)[C@@H](NC(=O)[C@H](CC(C)C)NC(=O)[C@H](CO)NC(=O)CNC(=O)[C@H](CC(C)C)NC(=O)[C@@H](N)C(C)C)[C@@H](C)CC)C(C)C)C(=O)NCC(=O)N[C@H](C(=O)N[C@@H](CC(C)C)C(=O)N[C@@H](CO)C(=O)N[C@@H](CO)C(=O)N[C@@H](CC(C)C)C(=O)N[C@@H](C)C(=O)N[C@@H](C)C(=O)N[C@@H](CCCNC(=N)N)C(=O)N[C@@H](Cc1ccc(O)cc1)C(=O)N[C@@H](CCCCN)C(=O)O)C(C)C [Pln 1] (H-VLGSLIGSVGIGVLSSLAARYK-OH) has an MIC50 (Salmonella Typhimurium) of 5480 µg/mL (≈ 2540 µM).
CC[C@H](C)[C@H](N)C(=O)N[C@@H](Cc1ccc(O)cc1)C(=O)N1CCC[C@H]1C(=O)N[C@@H](CCC(=O)O)C(=O)N[C@@H](CCCCN)C(=O)N[C@@H](CCC(N)=O)C(=O)N1CCC[C@H]1C(=O)N[C@@H](CCC(=O)O)C(=O)N[C@@H](CCC(=O)O)C(=O)N1CCC[C@H]1C(=O)N[C@H](C(=O)N[C@@H](CCCNC(=N)N)C(=O)N[C@@H](CCCNC(=N)N)C(=O)O)C(C)C [Pln 2] (H-IYPEKQPEEPVRR-OH) was tested, and the MIC50 (Salmonella Typhimurium) was 4840 µg/mL (≈ 2950 µM).
For CC(C)C[C@H](NC(=O)[C@H](CCCNC(=N)N)NC(=O)[C@H](CC(N)=O)NC(=O)[C@H](CCCNC(=N)N)NC(=O)[C@H](CC(C)C)NC(=O)[C@H](Cc1ccccc1)NC(=O)[C@H](CCCNC(=N)N)NC(=O)[C@H](CCCCN)NC(=O)[C@H](CCCCN)NC(=O)[C@H](C)NC(=O)[C@@H](N)CCCCN)C(=O)N[C@@H](CO)C(=O)N[C@@H](CCC(N)=O)C(=O)N[C@@H](CCC(N)=O)C(=O)N[C@@H](C)C(=O)N[C@@H](CCCNC(=N)N)C(=O)N[C@@H](CCCCN)C(=O)N[C@@H](C)C(=O)N[C@@H](CCCNC(=N)N)C(=O)N[C@H](C(=O)N[C@@H](CCCCN)C(=O)O)[C@@H](C)O [Pln 5] (H-KAKKRFLRNRLSQQARKARTK-OH), the “cytotoxicity on the human host cells” value [1] was “exhibited a cytotoxicity on the human host cells” and the MIC50 (Salmonella Typhimurium) was 4450 µg/mL (≈ 1720 µM).
In the case of CC[C@H](C)[C@H](NC(=O)CNC(=O)[C@@H](NC(=O)[C@H](C)NC(=O)[C@H](CCSC)NC(=O)[C@H](C)NC(=O)[C@H](CCCCN)NC(=O)[C@H](Cc1ccccc1)NC(=O)[C@@H]1CCCN1C(=O)[C@H](CCC(=O)O)NC(=O)[C@H](CCCNC(=N)N)NC(=O)[C@@H](NC(=O)[C@@H](NC(=O)[C@@H]1CCCN1)[C@@H](C)CC)C(C)C)C(C)C)C(=O)N[C@H](C(=O)N[C@@H](CC(C)C)C(=O)N[C@@H](C)C(=O)N[C@H](C(=O)N[C@@H](CCSC)C(=O)N[C@@H](CO)C(=O)NCC(=O)N[C@@H](CC(C)C)C(=O)N[C@@H](CC(C)C)C(=O)N[C@H](C(=O)N[C@H](C(=O)O)[C@@H](C)O)C(C)C)C(C)C)[C@@H](C)CC [Pln 4] (H-PIVREPFKAMAVGIILAVMSGLLVT-OH), the MIC50 (Salmonella Typhimurium) is reported as 5650 µg/mL (≈ 2150 µM).

— paper PMC7650660, “Potential of Cell-Free Supernatant from Lactobacillus plantarum NIBR97, Including Novel Bacteriocins, as a Natural Alternative to Chemical Disinfectants” (Pharmaceuticals, 2020)
